These compounds were tested against Neprilysin/Angiotensin-converting enzyme (Homo sapiens, UniProt P08473+P12821) (assay: Enzyme Inhibition Assays (Assay 1)).

Ki [nM]	Compound
1.26 to 10	CC(C)OC(=O)C(=O)N[C@H](Cc1ccc(-c2cccc(Cl)c2)cc1)C[C@@H](O)C(=O)O [US20230285340, Example 2G]
1.26 to 10	C[C@@](CO)(C[C@@H](Cc1ccc(-c2ccccc2)cc1)NC(=O)C(=O)O)C(=O)O [US20230285340, Example 9A]
12.6 to 100	CC(O)(CN(Cc1ccc(-c2ccccc2)cc1)NC(=O)C(=O)O)C(=O)O (stereo unspecified) [US20230285340, Example 12]
1.26 to 10	O=C(O)C(=O)NN(Cc1ccc(-c2cccc(Cl)c2)cc1)C[C@@H](O)C(=O)O [US20230285340, Example 13]
1.26 to 10	CC(C)(c1ccc(-c2ccccc2)cc1)[C@H](C[C@@H](CO)C(=O)O)NC(=O)C(=O)O [US20230285340, Example 16]
1.26 to 10	C[C@@](CO)(C[C@@H](Cc1ccc(-c2cccc(F)c2)cc1)NC(=O)C(=O)O)C(=O)O [US20230285340, Example 10]
1.26 to 10	CC(C)COC(=O)[C@H](O)C[C@@H](Cc1ccc(-c2cccc(Cl)c2)cc1)NC(=O)C(=O)O [US20230285340, Example 2I]
1.26 to 10	CCOC(=O)C(=O)NN(Cc1ccc(-c2cc(Cl)ccc2F)cc1)C[C@@H](O)C(=O)O [US20230285340, Example 14F]
12.6 to 100	CC(C)(c1ccc(-c2ccccc2)cc1)[C@H](C[C@@H](O)C(=O)O)NC(=O)C(=O)O [US20230285340, Example 15]
1.26 to 10	O=C(O)C(=O)N[C@H](Cc1ccc(-c2ccccc2)cc1Cl)C[C@@H](O)C(=O)O [US20230285340, Example 4]
12.6 to 100	CC(C)OC(=O)[C@H](O)C[C@@H](Cc1ccc(-c2cccc(Cl)c2)cc1)NC(=O)C(=O)O [US20230285340, Example 2J]

— BindingDB's records for patent US20230285340 (Theravance Biopharma R&D Ip, 2023)
